Experimental data as given in PubChem BioAssay (NCI).
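Step 1: Grow cells in 96-well plates. Step 2: Expose to compound for 48 hours at 5 concentrations. Step 3: Interpolate endpoints linearly; if unreached, use highest concentration. Here, GI50 denotes the concentration required for 50% inhibition of growth. TGI is the concentration that stops growth completely.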

How the values were obtained:
Assay in all cases: DTP human tumour cell line panel, 48 h
OVCAR-5 ovarian = system: OVCAR-5 ovarian
PC-3 prostate = system: PC-3 prostate
LOX IMVI melanoma = system: LOX IMVI melanoma
KM12 colon = system: KM12 colon
MDA-MB-468 breast = system: MDA-MB-468 breast
COLO 205 colon = system: COLO 205 colon
SF-295 CNS = system: SF-295 CNS
MDA-MB-435 = system: MDA-MB-435
OVCAR-3 ovarian = system: OVCAR-3 ovarian
K-562 leukemia = system: K-562 leukemia
RXF 393 renal = system: RXF 393 renal
SK-MEL-5 melanoma = system: SK-MEL-5 melanoma
SK-OV-3 ovarian = system: SK-OV-3 ovarian
HT29 colon = system: HT29 colon
MOLT-4 leukemia = system: MOLT-4 leukemia
NCI/ADR-RES ovarian = system: NCI/ADR-RES ovarian
SK-MEL-2 melanoma = system: SK-MEL-2 melanoma
MCF7 breast = system: MCF7 breast
MALME-3M melanoma = system: MALME-3M melanoma
DU-145 prostate = system: DU-145 prostate
786-0 renal = system: 786-0 renal
SNB-19 CNS = system: SNB-19 CNS
HOP-62 NSCLC = system: HOP-62 NSCLC
EKVX NSCLC = system: EKVX NSCLC
M14 melanoma = system: M14 melanoma
UACC-62 melanoma = system: UACC-62 melanoma
SF-539 CNS = system: SF-539 CNS
OVCAR-4 ovarian = system: OVCAR-4 ovarian

Work on `CO[C@H]1CSS[C@@H]1Cn1nc(-c2ccc(Oc3ccccc3)cc2)c2c(N)ncnc21` yielded a GI50 (OVCAR-5 ovarian) of 11.4 µM, a TGI (OVCAR-5 ovarian) of 41.3 µM and a GI50 (PC-3 prostate) of 18 µM. It also gave a TGI (PC-3 prostate) of 75.1 µM, a GI50 (LOX IMVI melanoma) of 8.01 µM and a TGI (LOX IMVI melanoma) of 20.7 µM. For the same compound, the GI50 (KM12 colon) was 5.51 µM, the TGI (KM12 colon) was 28 µM and the GI50 (MDA-MB-468 breast) was 3.06 µM. It also gave a TGI (MDA-MB-468 breast) of 12.9 µM, a GI50 (COLO 205 colon) of 11.3 µM and a TGI (COLO 205 colon) of 24.7 µM. For the same compound, the GI50 (SF-295 CNS) was 20.6 µM, the TGI (SF-295 CNS) was 63.4 µM and the GI50 (MDA-MB-435) was 2 µM. It also gave a TGI (MDA-MB-435) of 4.28 µM, a GI50 (OVCAR-3 ovarian) of 7.82 µM and a TGI (OVCAR-3 ovarian) of 30.5 µM. The GI50 (K-562 leukemia) was 2.83 µM, the TGI (K-562 leukemia) was 14.4 µM and the GI50 (RXF 393 renal) was 6.13 µM. The TGI (RXF 393 renal) was 25.3 µM, the GI50 (SK-MEL-5 melanoma) was 3.21 µM and the TGI (SK-MEL-5 melanoma) was 12.2 µM. For the same compound, the GI50 (SK-OV-3 ovarian) was 2.38 µM, the TGI (SK-OV-3 ovarian) was 7.36 µM and the GI50 (HT29 colon) was 4.28 µM. The TGI (HT29 colon) was 18.1 µM, the GI50 (MOLT-4 leukemia) was 1.84 µM and the TGI (MOLT-4 leukemia) was 4.93 µM. It also gave a GI50 (NCI/ADR-RES ovarian) of 12.8 µM, a TGI (NCI/ADR-RES ovarian) of 64.6 µM and a GI50 (SK-MEL-2 melanoma) of 3.99 µM. For the same compound, the TGI (SK-MEL-2 melanoma) was 15 µM, the GI50 (MCF7 breast) was 3.84 µM and the TGI (MCF7 breast) was 20.6 µM. For the same compound, the GI50 (MALME-3M melanoma) was 9.3 µM, the TGI (MALME-3M melanoma) was 23.1 µM and the GI50 (DU-145 prostate) was 13.7 µM. The TGI (DU-145 prostate) was greater than 100 µM, the GI50 (786-0 renal) was 17.4 µM and the TGI (786-0 renal) was 58 µM. For the same compound, the GI50 (SNB-19 CNS) was 5.96 µM, the TGI (SNB-19 CNS) was greater than 100 µM and the GI50 (HOP-62 NSCLC) was 3.25 µM. For the same compound, the TGI (HOP-62 NSCLC) was 26.9 µM, the GI50 (EKVX NSCLC) was 4.87 µM and the TGI (EKVX NSCLC) was 30.1 µM. For the same compound, the GI50 (M14 melanoma) was 1.86 µM, the TGI (M14 melanoma) was 3.78 µM and the GI50 (UACC-62 melanoma) was 2.82 µM. The TGI (UACC-62 melanoma) was 12.7 µM, the GI50 (SF-539 CNS) was 14.4 µM and the TGI (SF-539 CNS) was 49.2 µM. The GI50 (OVCAR-4 ovarian) was 18.4 µM and the TGI (OVCAR-4 ovarian) was greater than 100 µM.
